Calls of active or inactive are those of the source. The rule behind the calls is not given here.
Biological target: glucose-6-phosphate dehydrogenase-6-phosphogluconolactonase (Plasmodium falciparum 3D7)
Assay: PfG6PD enzyme inhibitors, kinetic NADPH readout, dose response, orthogonal assay, biochemical, kinetic NADPH detection (AID 540269)
Settings: purified PfG6PD-6PGL

O=C(O)c1ccc(-n2c(-c3cc(-c4ccco4)[nH]n3)n[nH]c2=S)cc1
IC50: 40.8 µM

Cc1ccc(NC(=O)c2cc(N3C(=O)C=CC3=O)ccc2N2CCOCC2)cc1Cl
IC50: > 80 µM (inactive)

C[C@]12CC[C@@H]3c4cc(O)c(O)cc4CC[C@H]3[C@@H]1CC[C@@H]2O
IC50: 25 µM

c1cc2c(cc1NC1CCCCCC1)OCO2
IC50: > 80 µM (inactive)

CCNc1nc(NC(C)C)nc(NS(=O)(=O)c2ccc(Cl)cc2)n1
IC50: > 80 µM (inactive)

CC(=O)Nc1ccc(S(=O)(=O)NNc2cccc(C)c2)cc1
IC50: > 80 µM (inactive)

Cc1cccc(C(=O)Nc2nnc(S(=O)(=O)N3CCOCC3)s2)c1
IC50: 59.4 µM

CC1N(C)c2cccc3cccc(c23)N1C
IC50: 19.7 µM

Cc1nnc(N/N=C\c2ccc(-c3cccc(C(=O)O)c3)o2)n1N
IC50: 40.1 µM

O=C(Nc1nc(-c2ccncc2)cs1)C1COc2ccccc2O1 (stereo unspecified)
IC50: 22.4 µM

O=C(O)c1cc(N2C(=O)C=CC2=O)cc(N2C(=O)C=CC2=O)c1
IC50: 19.6 µM

CCN(CC)c1ccc(C(=C2C=CC(=[N+](CC)CC)C=C2)c2ccc(N(CC)CC)cc2)cc1
IC50: 16.1 µM

CNS(=O)(=O)c1ccc(-c2ccc(C=C3C(=O)NC(=O)NC3=O)o2)cc1
IC50: 33.6 µM

O=[N+]([O-])c1cnc(Sc2ccncn2)c([N+](=O)[O-])c1
IC50: 62.8 µM

CCCN1CCc2cccc3c2[C@H]1Cc1ccc(O)c(O)c1-3
IC50: > 80 µM (inactive)

COc1ccc(N2C(=O)/C(=C/c3cccs3)NC2=S)cc1
IC50: 40.2 µM

Cc1ccc(-c2nc(N3CCOCC3)s[n+]2-c2ccccc2)cc1
IC50: > 80 µM (inactive)

CN1CCN(C(=S)c2ccc([N+](=O)[O-])cc2)CC1
IC50: > 80 µM (inactive)

CSc1nnc(NC(=O)c2ccc3c(c2)OCO3)s1
IC50: 27.1 µM

O=[N+]([O-])c1ccc(-[n+]2ccc3ccccc3c2)c([N+](=O)[O-])c1
IC50: > 80 µM (inactive)

COc1ccc2c(c1)c(=Cc1ccc(N(C)C)cc1)c1cc(-c3ccccc3)[n+](C)n12
IC50: 64.4 µM

CCOc1ccccc1NS(=O)(=O)c1c(C)noc1C
IC50: > 80 µM (inactive)

O=C(CBr)c1ccc([N+](=O)[O-])c(CS(=O)(=O)c2ccc(Cl)cc2)c1
IC50: > 80 µM (inactive)

Cc1ccc(NC(=O)Cn2sc3ccccc3c2=O)cc1
IC50: 14.4 µM

O=S(=O)(Nc1c(O)ccc2ccccc12)c1ccccc1
IC50: 9.3 µM

COc1ccc(OC)c2c1C(=O)C(Cl)=C(Cl)C2=O
IC50: 20.3 µM

O=[N+]([O-])c1cccc(SSc2cccc([N+](=O)[O-])c2)c1
IC50: 71.5 µM

Cn1c(-c2sccc2OCc2cccc(C(F)(F)F)c2)n[nH]c1=S
IC50: 7.3 µM

CC1(C)CC2(CC(c3ccccc3F)c3ccc(O)c(O)c3O2)NC(=S)N1 (stereo unspecified)
IC50: 45.8 µM

CC(=O)OCCCNc1cc(Sc2nc3ccccc3s2)c2nonc2c1[N+](=O)[O-]
IC50: 14.9 µM

Cc1cc(=O)[nH]c(N/N=C/c2c(C)nn(-c3ccccc3)c2Cl)n1
IC50: 17.1 µM

CCN=c1scc(C)n1/N=C/c1ccc(O)c(O)c1O
IC50: 39.2 µM

O=C(Cn1sc2ccccc2c1=O)Nc1ccc(Br)cc1
IC50: 17 µM

O=c1c2ccccc2sn1-c1nccs1
IC50: 23.1 µM

COC(=O)c1cc2c(n1S(=O)(=O)c1ccc(C)cc1)C(=O)C(=O)c1[nH]cc(C(=O)OCc3ccccc3)c1-2
IC50: > 80 µM (inactive)

[O-]/[N+](=C\c1ccncc1)c1ccccc1
IC50: > 80 µM (inactive)

COc1ccc(Nc2cc(C)c3c(O)cccc3n2)cc1
IC50: > 80 µM (inactive)

O=C(CN1C(=O)C2C3C=CC(C3)C2C1=O)OCC(=O)c1ccc([N+](=O)[O-])cc1 (stereo unspecified)
IC50: > 80 µM (inactive)

NC(=O)N/N=C/c1ccc(-n2nncc2-c2ccc(Cl)cc2)cc1
IC50: > 80 µM (inactive)

[O-]/[N+](=C\c1ccco1)c1ccc(Cl)cc1
IC50: 76.7 µM

Clc1nssc1=Nc1nncs1
IC50: 33.4 µM

Nc1[nH]c(=O)[nH]c(=O)c1N=Cc1ccccc1
IC50: 20.6 µM

Cc1ccc(-n2sc3ccccc3c2=O)cc1
IC50: 19.1 µM

N#Cc1ccc(N=c2ssnc2Cl)cc1
IC50: 53.7 µM

C=C1C(=O)O[C@@H]2C[C@@H](C)[C@@H]3C=CC(=O)[C@@]3(C)[C@@H](OC(=O)CC(=O)O[C@H]3[C@@H]4C(=C)C(=O)O[C@@H]4C[C@@H](C)[C@@H]4C=CC(=O)[C@]43C)[C@H]12
IC50: > 80 µM (inactive)

Cc1ccc(NC(=O)c2cc(N3C(=O)C=CC3=O)ccc2Cl)cc1C
IC50: 43.5 µM

O=C1C(Cl)=C(NCCc2ccccc2)C(=O)c2ccccc21
IC50: 70.3 µM

COc1ccc(N2CSC3=C(C#N)C(c4cc(OC)c(OC)cc4OC)CC(=O)N3C2)c(OC)c1 (stereo unspecified)
IC50: > 80 µM (inactive)

CCn1c([N+](=O)[O-])nc2c1c(=O)[nH]c(=O)n2C
IC50: > 80 µM (inactive)

CC(NC(=O)c1sc2cc([N+](=O)[O-])ccc2c1Cl)C(C)(C)C (stereo unspecified)
IC50: > 80 µM (inactive)

COc1cc(NCCCn2cnc(C(=O)Nc3ccc(C)c(C)c3)n2)cc(OC)c1OC
IC50: > 80 µM (inactive)

CCOc1ccccc1CNc1ccc(O)cc1
IC50: 46.7 µM

COc1ccc(Cl)cc1NC(=O)c1cccc([N+](=O)[O-])c1O
IC50: > 80 µM (inactive)

Oc1ccc(C2C[C@H]3CC[C@@H]2C3)cc1O (stereo partly specified)
IC50: 48.6 µM

Cn1c2ccccc2c2ccc3c(c21)C(=O)C=CC3=O
IC50: 1.8 µM

CC1CCc2c(nc3sc4c(c3c2N)CCCC4)C1 (stereo unspecified)
IC50: > 80 µM (inactive)

From PubChem BioAssay AID540269 (Sanford-Burnham Center for Chemical Genomics, 2011)
